Where “and” joins values, the source holds several entries; their conditions need not be identical. Identical values can stand only once. Like-named read-outs stand apart in the source and are kept apart here.
Assays:
[1] = system: MCF-10A normal breast cells; assay: MTT cytotoxicity assay on MCF-10A; format: cell-based; settings: Homo sapiens, 48 h, n = 3, read-out: IC50 ± SD, MCF-10A
Method: (§1) Both breast cancer (MCF-7) and normal breast (MCF-10A) cells were purchased from National Research Institute, Egypt, and maintained in complete media of RPMI-1640 medium L-Glutamine (Lonza Verviers SPRL, Belgium, cat#12-604F). Cells were incubated following standard tissue culture work. Cell viability was measured 48 h later, utilizing MTT colorimetric assay (Promega, Madison, WI, USA). Absorbance was consequently assessed (at 570 nm) using an ELISA microplate reader (BIO-RAD, model iMark, Tokyo, Japan). Using GraphPad Prism 7, the IC50 values were determined, and the viability at each concentration was determined in comparison to the control.

[2] = system: MCF-7 cells; assay: DNA content flow cytometry cell cycle analysis; format: cell-based; settings: MCF-7 after treatment
[3] = system: MCF-7 cancer cells; assay: MTT cytotoxicity assay on MCF-7; format: cell-based; settings: for LogIC50 MCF-7: Figure 4 curve fit, cell viability vs. log [conc. µM]; for IC50: MTT assay, 48 h, n = 3, NA: Non-Active, read-out: IC50 ± SD, MCF-7
Method: as §1

[4] = format: in vivo
Text: In vivo experiments for lethal dose (LD50), experimental design, tumor mass, blood parameters, histopathological examinations were accomplished as previously described. After inoculating the tumor cells, masses of the solid tumor started to appear ten days later. […]. Animals from each group were sacrificed, and their blood was drawn to measure hemoglobin (Hb), red blood cell (RBC), white blood cell (WBC), and liver enzymes (ALT, AST, albumin, and total protein) levels.

[5] = system: Bax; assay: RT-PCR gene expression in MCF-7 cells; format: cell-based; settings: MCF-7, IC50, 48 h, normalized to β-actin, untreated = 1
Method: (§2) Furthermore, to explore the apoptotic pathway, gene expression of proapoptotic genes (P53, Bax, Caspapses-3,8,9) and antiapoptotic gene (Bcl-2) was evaluated using routine RT-PCR in the untreated and treated MCF-7 cells. Ct values were calculated to determine the relative genes expression in all samples by normalization to β-actin (housekeeping gene).

[6] = system: Casp-3; assay: RT-PCR gene expression in MCF-7 cells; format: cell-based; settings: MCF-7, IC50, 48 h, normalized to β-actin, untreated = 1
Method: as §2

[7] = system: Casp-8; assay: RT-PCR gene expression in MCF-7 cells; format: cell-based; settings: MCF-7, IC50, 48 h, normalized to β-actin, untreated = 1
Method: as §2

[8] = system: Casp-9; assay: RT-PCR gene expression in MCF-7 cells; format: cell-based; settings: MCF-7, IC50, 48 h, normalized to β-actin, untreated = 1
Method: as §2

[9] = system: Bcl-2; assay: RT-PCR gene expression in MCF-7 cells; format: cell-based; settings: MCF-7, IC50, 48 h, normalized to β-actin, untreated = 1
Method: as §2

[10] = system: P53; assay: RT-PCR gene expression in MCF-7 cells; format: cell-based; settings: MCF-7, IC50, 48 h, normalized to β-actin, untreated = 1
Method: as §2

[11] = system: MCF-7 cells; assay: Annexin V/PI staining flow cytometry; format: cell-based; settings: MCF-7, treated at IC50, 48 h; for late apoptosis: AV+/PI+; for early apoptosis: AV+/PI−; for apoptotic cell death (total): control 0.68%
Method: MCF-7 breast cancer cells were seeded into 6-well culture plates (3–5 × 10^5 cells/well) and incubated for 24 h. […] After that, the collection of the media supernatants and the cells was performed before undergoing rinsing with ice-cold PBS. The cells were suspended in 100 µL of annexin-binding buffer solution “25 mM CaCl2, 1.4 M NaCl, and 0.1 M Hepes/NaOH, pH 7.4” and incubated with “Annexin V-FITC solution (1:100) and propidium iodide (PI)” at a concentration equal 10 µg/mL in the dark for 30 min. Stained cells were then obtained by a Cytoflex FACS machine, and data analysis was performed using cytExpert software.

[12] = target: T1, EGFR Kinase (Homo sapiens, UniProt P00533); assay: EGFR Kinase Assay Kit (BPS Bioscience); format: biochemical; settings: mean ± SD of three replicates, five concentrations
T1 construct: purchased BPS Bioscience 40321
T1 sequence (P00533 25-1210): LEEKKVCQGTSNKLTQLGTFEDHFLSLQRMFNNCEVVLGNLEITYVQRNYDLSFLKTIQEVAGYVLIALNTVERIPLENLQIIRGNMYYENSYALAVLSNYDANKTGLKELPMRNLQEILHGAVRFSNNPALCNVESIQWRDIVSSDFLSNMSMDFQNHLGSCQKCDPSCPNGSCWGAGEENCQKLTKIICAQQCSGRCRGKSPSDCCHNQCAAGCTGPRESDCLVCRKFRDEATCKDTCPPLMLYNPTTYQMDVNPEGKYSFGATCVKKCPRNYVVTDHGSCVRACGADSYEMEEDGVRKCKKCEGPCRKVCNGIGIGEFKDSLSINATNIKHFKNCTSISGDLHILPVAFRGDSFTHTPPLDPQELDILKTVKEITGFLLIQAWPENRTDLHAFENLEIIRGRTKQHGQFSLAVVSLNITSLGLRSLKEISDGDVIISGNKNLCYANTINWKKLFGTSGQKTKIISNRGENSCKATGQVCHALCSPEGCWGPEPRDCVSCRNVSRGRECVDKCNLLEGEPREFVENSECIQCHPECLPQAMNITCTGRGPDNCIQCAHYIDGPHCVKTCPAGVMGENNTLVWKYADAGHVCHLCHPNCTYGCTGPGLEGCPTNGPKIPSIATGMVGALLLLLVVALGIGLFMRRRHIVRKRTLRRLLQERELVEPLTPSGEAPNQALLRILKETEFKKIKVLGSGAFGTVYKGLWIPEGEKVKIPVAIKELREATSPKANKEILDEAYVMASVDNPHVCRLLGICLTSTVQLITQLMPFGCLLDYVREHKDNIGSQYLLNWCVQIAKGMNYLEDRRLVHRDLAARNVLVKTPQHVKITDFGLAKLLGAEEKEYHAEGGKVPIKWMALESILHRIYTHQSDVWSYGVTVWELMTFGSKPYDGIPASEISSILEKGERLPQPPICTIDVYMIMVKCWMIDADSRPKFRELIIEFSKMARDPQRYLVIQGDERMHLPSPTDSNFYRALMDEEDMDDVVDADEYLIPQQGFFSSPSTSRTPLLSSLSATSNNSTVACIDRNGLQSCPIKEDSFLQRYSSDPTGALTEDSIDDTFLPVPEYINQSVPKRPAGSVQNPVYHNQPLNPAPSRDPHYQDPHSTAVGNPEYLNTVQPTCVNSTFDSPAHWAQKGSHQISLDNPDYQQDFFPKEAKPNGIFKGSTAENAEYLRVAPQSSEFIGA
Method: (§3) Compounds’ autophosphorylation percentage inhibition was computed according to the following equation: […] , then IC50 values were calculated using GraphPad prism software.

[13] = system: MCF-7 cells (Xenograft model); format: in vivo, mice; settings: 10 mg/kg BW, IP
Text: In vivo experiments for lethal dose (LD50), experimental design, tumor mass, blood parameters, histopathological examinations were accomplished as previously described. After inoculating the tumor cells, masses of the solid tumor started to appear ten days later. […] Animals from each group were sacrificed, and their blood was drawn to measure hemoglobin (Hb), red blood cell (RBC), white blood cell (WBC), and liver enzymes (ALT, AST, albumin, and total protein) levels.

[14] = target: T2, HER2 Kinase (Homo sapiens, UniProt P04626); assay: HER2 Kinase Assay Kit (BPS Bioscience); format: biochemical; settings: mean ± SD of three replicates, five concentrations
T2 construct: purchased BPS Bioscience 40721
T2 sequence (P04626 23-1255): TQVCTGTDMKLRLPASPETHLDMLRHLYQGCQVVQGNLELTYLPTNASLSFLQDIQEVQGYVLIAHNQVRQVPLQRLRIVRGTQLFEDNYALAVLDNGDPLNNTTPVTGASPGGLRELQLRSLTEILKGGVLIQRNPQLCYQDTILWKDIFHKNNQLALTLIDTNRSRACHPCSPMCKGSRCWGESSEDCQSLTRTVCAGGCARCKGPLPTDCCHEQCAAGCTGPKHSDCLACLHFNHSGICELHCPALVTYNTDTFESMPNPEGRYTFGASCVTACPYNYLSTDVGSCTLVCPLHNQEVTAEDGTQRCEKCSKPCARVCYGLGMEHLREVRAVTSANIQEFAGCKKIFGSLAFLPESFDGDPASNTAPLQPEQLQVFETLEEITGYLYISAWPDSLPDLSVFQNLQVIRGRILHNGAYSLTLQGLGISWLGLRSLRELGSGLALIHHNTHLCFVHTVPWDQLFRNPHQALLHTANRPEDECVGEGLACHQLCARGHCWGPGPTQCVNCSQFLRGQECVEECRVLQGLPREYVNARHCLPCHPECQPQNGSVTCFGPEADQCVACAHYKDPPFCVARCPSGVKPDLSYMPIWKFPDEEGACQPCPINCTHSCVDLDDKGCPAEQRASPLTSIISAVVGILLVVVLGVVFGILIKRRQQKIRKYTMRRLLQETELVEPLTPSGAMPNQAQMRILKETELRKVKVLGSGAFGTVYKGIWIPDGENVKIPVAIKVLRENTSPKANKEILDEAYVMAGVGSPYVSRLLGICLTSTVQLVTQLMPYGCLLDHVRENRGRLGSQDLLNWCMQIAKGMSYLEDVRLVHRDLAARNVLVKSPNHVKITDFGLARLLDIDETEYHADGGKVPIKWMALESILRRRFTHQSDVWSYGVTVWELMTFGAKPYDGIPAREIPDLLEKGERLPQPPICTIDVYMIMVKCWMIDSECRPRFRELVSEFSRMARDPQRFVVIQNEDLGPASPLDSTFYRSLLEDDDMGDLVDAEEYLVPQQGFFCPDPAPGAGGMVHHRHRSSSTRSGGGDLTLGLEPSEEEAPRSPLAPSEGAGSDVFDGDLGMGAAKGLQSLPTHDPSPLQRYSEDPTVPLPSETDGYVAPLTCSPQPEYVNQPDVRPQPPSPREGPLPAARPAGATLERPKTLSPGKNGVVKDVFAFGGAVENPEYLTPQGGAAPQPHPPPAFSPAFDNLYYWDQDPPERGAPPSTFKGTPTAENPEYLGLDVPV
Method: as §3

[15] = system: mutant EGFR (L858R); parameters: method as in PMID 35427766; settings: allosteric inhibitor; cited from earlier work
[16] = system: EGFR; parameters: method as in PMID 33872924; settings: reported phenylthiazole derivative; cited from earlier work

COc1ccc(C2CC(c3ccc(OC)c(OC)c3)=NN2c2nc(-c3ccccc3)cs2)cc1 (stereo not shown) [Compound 6e, 2-(3-(3,4-Dimethoxyphenyl)-5-(4-methoxyphenyl)-4,5-dihydro-1H-pyrazol-1-yl)-4-phenylthiazole]
IC50 [1]: ≥ 50 µM | percentage of cells in the S phase ([2]; control 34.18): 44.52% | LogIC50 MCF-7 [3]: 0.862 | IC50 ([3]; Homo sapiens, MCF7, 48 h): 7.28 µM | IC50 [3]: 7.21 ± 0.48 µM | mice weight ([4]; 10 mg/kg BW, IP, MCF-7 control 32.28 g, normal 24.5 g): 28.23 g | histopathological examination of liver sections ([4]; mouse, in vivo): normal nuclei morphology in most of the cells with slight hydrophobic degeneration | Fold Change = 2^−ΔΔCT, Bax [5]: 6.39 fold and 6.39 ± 0.8 fold | Fold Change = 2^−ΔΔCT, Casp-3 [6]: 7.12 fold and 7.12 ± 0.53 fold | Fold Change = 2^−ΔΔCT, Casp-8 [7]: 1.71 fold and 1.71 ± 0.18 fold | Fold Change = 2^−ΔΔCT, Casp-9 [8]: 8.19 fold and 8.19 ± 0.32 fold | Fold Change = 2^−ΔΔCT, Bcl-2 [9]: 0.22 ± 0.06 fold | Fold Change = 2^−ΔΔCT, P53 [10]: 4.85 ± 0.4 fold | late apoptosis [11]: 18.52% | early apoptosis [11]: 9.47% | apoptotic cell death (total) [11]: 27.99% | IC50 [12]: 0.009 ± 0.001 µM | tumor inhibition ratio ([13]; seven administrations): 52.46% | tumor volume ([13]; decreased from 89.8): 28.4 mm^3

COc1ccc(C2=NN(c3nc(-c4ccc(F)cc4)cs3)C(c3ccc(Cl)cc3)C2)cc1OC (stereo not shown) [Compound 6k, 2-(5-(4-Chlorophenyl)-3-(3,4-dimethoxyphenyl)-4,5-dihydro-1H-pyrazol-1-yl)-4-(4-fluorophenyl)thiazole]
IC50 [1]: ≥ 50 µM | percentage of cells in the G2/M phase ([2]; printed 'reduced by', control 9.7%): 2.01% | LogIC50 MCF-7 [3]: 0.9042 | IC50 ([3]; Homo sapiens, MCF7, 48 h): 8.02 µM | IC50 [3]: 8.02 ± 0.98 µM | IC50 [14]: 0.027 ± 0.002 µM | Fold Change = 2^−ΔΔCT, Bax [5]: 5.24 fold and 5.24 ± 0.4 fold | Fold Change = 2^−ΔΔCT, Casp-3 [6]: 5.79 fold and 5.79 ± 0.4 fold | Fold Change = 2^−ΔΔCT, Casp-8 [7]: 3.91 fold and 3.91 ± 0.42 fold | Fold Change = 2^−ΔΔCT, Casp-9 [8]: 6.07 fold and 6.07 ± 0.23 fold | Fold Change = 2^−ΔΔCT, Bcl-2 [9]: 0.41 fold and 0.41 ± 0.09 fold | Fold Change = 2^−ΔΔCT, P53 [10]: 3.91 fold and 3.91 ± 0.50 fold | late apoptosis [11]: 14.38% | early apoptosis [11]: 8.06% | apoptotic cell death (total) [11]: 22.44% | IC50 [12]: 0.014 ± 0.001 µM

O=C(Nc1nccs1)C(c1cc(F)ccc1O)N1Cc2ccccc2C1=O (stereo not shown) [EAI045]
IC50 [15]: 0.019 µM

COc1ccc(-c2csc(NC(=O)CSc3nc(-c4ccc(OC)cc4)c(C#N)c(=O)[nH]3)n2)cc1 [VI]
IC50 [16]: 0.19 µM

— PMC9607164, “Rational Design, Synthesis and Biological Evaluation of Novel Pyrazoline-Based Antiproliferative Agents in MCF-7 Cancer Cells” (Pharmaceuticals, 2022)
